According to patent US20240115270A1, “DIRECT ORAL ANTICOAGULANT-ELUTING MEDICAL DEVICE” (BOSTON SCIENTIFIC SCIMED, INC., priority 2021, published 2024):

Columns and labels:
heparinized bovine blood = experiment: Clot formation on dip-coated PET fabric disks in heparinized bovine blood; conditions: PVDF-HFP/drug 90/10 dip-coated 15 mm PET fabric disks, ACT about 190 seconds, 37° C., various time points, images FIG. 5
Procedure: A solution of PVDF-HFP and DOAC was prepared in 80/20 acetone/DMSO (wt/wt). The PVDF-HFP to drug ratio was 90/10 (wt/wt) and the solution solids was 0.7%. The DOAC drugs evaluated were apixaban (Eliquis®), rivaroxaban (Xarelto®) and edoxaban (Savaysa®) 15 mm diameter polyethylene terephthalate (PET) fabric disks were dip coated into the polymer/drug solution at a dip speed of 5 mm/sec. The coated disks were dried for 30 min at 125° C. in a convection oven. The drug coated disks and PVDF-HFP only control disks were placed in cups containing heparinized bovine blood adjusted to an active clotting time (ACT) of about 190 seconds using protamine. The cups were placed on an orbital shaker incubator at 37° C. and disks were removed at various time points and imaged. The disks were then dried and weighed to determine clot weight. […] The clot weights provided in FIG. 6 verify the minimal amount of thrombus formed on the DOAC treated fabric.

bovine blood = experiment: Thrombogenicity of spray-coated Watchman device in bovine blood; conditions: bovine blood ACT=210, 15 minutes
Procedure: A drug/polymer solution of PVDF-HFP and DOAC was prepared in 80/20 acetone/DMSO (wt/wt). The PVDF-HFP to drug ratio was 60/40 (wt/wt) and the solution solids was 2%. The DOAC drug evaluated was rivaroxaban (Xarelto). A 24 mm diameter Watchman device was spray-coated with the polymer/drug solution at a flow rate of 10 ml/hr to apply a basecoat. The device was dried for 30 min at 125° C. in a convection oven and then spray-coated with a topcoat solution (2% PVDF-HFP in 100% acetone), at a flow rate of 10 ml/hr. The total basecoat weight was 38.8 mg and the topcoat weight was 18.7 mg. The spray-coated device was then placed in PBS/Tween solution at 37° C. for 11 days to simulate in vivo drug elution. The device was then rinsed with DI water and dried. A PVDF-HFP-only coated control device was also subjected to the same incubation and rinsing protocol. The DOAC-eluting device and the control device were placed in the same container of bovine blood (ACT=210) on an orbital shaker incubator at 37° C. for 15 minutes to assess the thrombogenicity of the two devices.
A solution of PVDF-HFP and DOAC was prepared in 40/60 acetone/DMF (wt/wt). The PVDF-HFP to drug ratio was 70/30 (wt/wt) and the solution solids was 4%. The DOAC drug evaluated was apixaban. […]

Compound	thrombus (clots) compared to the PVDF-HFP coated control (heparinized bovine blood)	thrombus formation on partially coated (masked) device (bovine blood; PVDF-HFP/drug 70/30 basecoat plus topcoat, proximal face only, 24 mm Watchman, after 7 days in PBS/Tween at 37° C., FIG. 10B)	thrombus formation on device versus PVDF-HFP-only coated control device (bovine blood; PVDF-HFP/drug 60/40 basecoat plus topcoat on 24 mm Watchman, after 11 days in PBS/Tween at 37° C., FIGS. 9A-9D)
COc1ccc(-n2nc(C(N)=O)c3c2C(=O)N(c2ccc(N4CCCCC4=O)cc2)CC3)cc1 [apixaban]	significantly less thrombus	inhibited thrombus formation only on the proximal face of the device	
O=C(NC[C@H]1CN(c2ccc(N3CCOCC3=O)cc2)C(=O)O1)c1ccc(Cl)s1 [rivaroxaban]	significantly less thrombus		inhibited thrombus formation on the proximal face of the device to a greater degree than did the control device
